Data published in publication PMC10648159, “Novel MAGL Inhibitors Alleviate LPS-Induced Acute Kidney Injury by Inhibiting NLRP3 Inflammatory Vesicles, Modulating Intestinal Flora, Repairing the Intestinal Barrier, and Interfering with Serum Metabolism” (Molecules, 2023).

Biological target: T1, monoacylglycerol lipase (MAGL) (Homo sapiens, UniProt Q99685)
T1 construct: gene MGLL
T1 sequence (Q99685 1-303): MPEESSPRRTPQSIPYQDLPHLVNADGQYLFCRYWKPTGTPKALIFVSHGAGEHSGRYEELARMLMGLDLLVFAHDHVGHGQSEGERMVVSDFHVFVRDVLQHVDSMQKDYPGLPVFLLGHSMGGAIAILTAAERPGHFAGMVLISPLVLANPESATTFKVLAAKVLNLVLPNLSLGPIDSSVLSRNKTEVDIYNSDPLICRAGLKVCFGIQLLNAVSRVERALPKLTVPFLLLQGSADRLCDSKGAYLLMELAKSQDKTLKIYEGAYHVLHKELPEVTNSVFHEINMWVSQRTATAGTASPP
Assay: Cayman Monoacylglycerol Lipase Inhibitor Screening Assay Kit, absorbance at […] nm, […] min preincubation; maximum inhibition about […]
Format: biochemical

IC50: 663 nM
SMILES: CN1c2ccccc2CC1C(=O)N1CCC(C(=O)Nc2cccc(Cl)c2)CC1 (stereo not shown) [M-18C, MAGLZ-18(c)]
